Assay results published in patent publication US20120232251A1, “GLUCOSE SENSOR” (King's College London, priority 2009, published 2012).
pKd: −log10 of the molar value. Like-named read-outs stand apart in the source and are kept apart here.

Experiments:
[1] = cited from earlier work
[2] = cited from earlier work; for fluorescence change: autofluorescence of the protein; for pKd: monitored by the autofluorescence of GBP [32], read-out: Kd for glucose
[3] = Steady-state fluorescence intensity response of badan-labelled GBP mutants to glucose in PBS; assay type: binding; details: for Δ Fluorescence (%) (maximal change in fluorescence intensity with addition of glucose) / Kd: badan-labelled GBP mutant; for Δ Fluorescence (%) (maximal change in fluorescence intensity with addition of glucose): PBS, saturating glucose; for Kd: in PBS, read-out: Kd (mM) binding constant for glucose; for change in fluorescence intensity on glucose addition (in words): increasing glucose, up to 1M
Method: (§1) To label GBP mutants with badan, 50 μM protein was dissolved in 5 mM Tris(2-carboxyethyl)phosphine in phosphate-buffered saline (PBS) pH 7.4, and then a 10-fold excess of dye (500 μM) was added and the mixture incubated overnight at 4° C., after which it was purified on a Sephadex G-25 gel-filtration column.
(§2) Steady-state fluorescence intensity was recorded on a Perkin-Elmer LS50B fluorimeter (Perkin Elmer Instruments, Beaconsfield, UK). The excitation and emission wavelengths of badan were 400 and 550 nm respectively. All data were obtained at room temperature using quartz cuvettes with sample volume of 100 μL. The labelled protein was incubated with increasing amounts of D-glucose for 15-20 min at room temperature before fluorescence was recorded.
(§3) The binding constant, Kd, was calculated from the sigmoidal dose-response curves using Prism 5 software (GraphPad, San Diego, Calif., USA). Lifetime values were obtained from fluorescence transients using the TR12 analysis package (courtesy of Dr. Paul Barber, Gray Cancer Institute of Radiation Oncology and Biology, Oxford University, Oxford, UK). Global analysis was applied to the entire data set of twelve transients as described for the H152C mutant previously.

[4] = Steady-state fluorescence intensity response of badan-labelled GBP mutant to glucose in serum; assay type: binding
Method: as §1
Venous blood samples from healthy volunteers were collected in Vacuette tubes. The specimens were incubated at room temperature for 4 days to allow blood clotting and glycolysis. The samples were then centrifuged at 3500 g for 20 min and serum removed, pooled and stored until use. The glucose concentrations of serum samples were determined using a hexokinase-based assay (Sigma).
as §2, with “All data were obtained at room temperature using quartz cuvettes with sample volume of 100 μL.” left out
as §3, with “Global analysis was applied to the entire data set of twelve transients as described for the H152C mutant previously.” left out

[5] = prior-art reports, read-out: Kd / binding constant for glucose

Substance: A213R: GBP having a single mutation of A213R (Amiss et al)
- pKd ([1]; Amiss et al 2007, read-out: glucose affinity): ~3.00

Substance: L255C: GGBP mutant L255C (Ge et al)
- Kd / binding constant for glucose (in words) ([1]; prior-art reports): micromolar range

Substance: E149C/A213C/L238S(GGBP): GGBP triple mutant attached to Nile red (Thomas et al 2006)
- change (maximal increase) in fluorescence intensity on addition of glucose ([1]; prior-art reports): 50%
- change (maximal increase) in fluorescence intensity on addition of glucose ([1]; prior-art reports, listed as GBP attached to Nile red): about 50%
- pKd [1, 5]: 2.15

Substance: F16A: GBP mutant F16A, monitored by autofluorescence (Sakaguchi-Mikami et al)
- fluorescence change [2]: about 10%
- pKd [2]: 3.70

Substance: E149C A213R L238S: GBP triple mutant coupled to the IANBD fluorophore (Amiss et al)
- change in fluorescence intensity upon glucose binding (in words) ([1]; coupled to the IANBD fluorophore, Amiss et al): fifty percent

Substance: Q26C: GGBP with Gln at position 26 mutated to Cys (Tolosa et al)
- Kd / binding constant for glucose (in words) ([1]; prior-art reports): micromolar range

Substance: H152C/A213R: GBP double mutant labelled at 152C with badan
- Δ Fluorescence (%) (maximal change in fluorescence intensity with addition of glucose) [3]: ~500%
- Kd [3]: 0.6 mM

Substance: L238S: GBP mutant L238S previously reported
- weakening of the binding of glucose to GBP ([1]; previously reported [31]): ten-fold

Substance: D14E/F16A: GBP two-mutant D14E/F16A, monitored by autofluorescence (Sakaguchi-Mikami et al)
- fluorescence change [2]: about 10%
- pKd [2]: 2.41

Substance: H152C/F16A: GBP double mutant labelled at 152C with badan
- binding of glucose (in words) ([3]; badan-labelled): abolished the binding of glucose
- Δ Fluorescence (%) (maximal change in fluorescence intensity with addition of glucose) [3]: 0%
- change in fluorescence intensity on glucose addition (in words) ([3]; badan-labelled, listed as F16A mutation with H152C): no change of fluorescence intensity
- change in fluorescence intensity on glucose addition (in words) ([3]; badan-labelled, listed as F16A/H152C-badan): no change in fluorescence

Substance: H152C/A213R/L238S: E. coli glucose/galactose binding protein triple mutant labelled at cysteine 152 with badan
- Δ Fluorescence (%) (maximal change in fluorescence intensity with addition of glucose) [4]: 180%
- Kd ([4]; read-out: Kd (mM) binding constant for glucose): 14 mM
- Δ Fluorescence (%) (maximal change in fluorescence intensity with addition of glucose) [3]: 200%
- Kd [3]: 11 mM

Substance: H152C/L238S: GBP double mutant labelled at 152C with badan
- Δ Fluorescence (%) (maximal change in fluorescence intensity with addition of glucose) [3]: 200%
- Kd [3]: 0.6 mM

Substance: GBP: unmutated glucose/galactose binding protein of E. coli
- pKd [2]: 6.70

Substance: E149C/A213S/L238S: GGBP triple mutant reported by Hsieh et al
- pKd [1, 5]: 3.30
